This is an account of results in US20250171437A1 (Agios Pharmaceuticals,Inc., priority 2022, published 2025).

Molecules are shown by their SMILES.

The target of the first assay is T1, human PAH with the R408W mutation (A375 R408W cells) (Homo sapiens, UniProt P00439, R408W).
T1 construct: expressed in transfected cells
T1 sequence (P00439 1-452 R408W): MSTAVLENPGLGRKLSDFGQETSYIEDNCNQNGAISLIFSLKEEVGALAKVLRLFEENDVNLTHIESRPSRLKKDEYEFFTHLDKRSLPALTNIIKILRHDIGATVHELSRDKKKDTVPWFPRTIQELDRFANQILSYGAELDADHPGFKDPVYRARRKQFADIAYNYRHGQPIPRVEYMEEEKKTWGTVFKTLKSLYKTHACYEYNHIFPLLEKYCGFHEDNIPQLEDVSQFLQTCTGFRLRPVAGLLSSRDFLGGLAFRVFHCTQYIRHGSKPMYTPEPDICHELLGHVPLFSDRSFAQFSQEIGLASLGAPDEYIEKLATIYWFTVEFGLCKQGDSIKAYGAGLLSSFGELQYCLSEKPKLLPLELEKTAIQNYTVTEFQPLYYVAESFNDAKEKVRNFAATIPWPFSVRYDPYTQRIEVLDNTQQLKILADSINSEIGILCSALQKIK
As to the kind of experiment: Cell Based Phenylalanine Flux Assay. The note with it: A375 R408W cells; 24 hrs with compound, then 20 μM sepiapterin and 800 μM 13C9,15N-Phenylalanine for 4 hours; 13C-Tyrosine by LC-MS; average where tested multiple times. The essentials: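 Phenylalanine-to-tyrosine flux is measured in A375 cells carrying stable human R408W PAH. After 24 h compound exposure, 13C9,15N-Phe (800 μM) with sepiapterin (20 μM) is supplied for 4 h and media 13C-Tyr is read by LC-MS; AC50s are binned.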
As for `CC(C)(O)c1nc(Br)c(C(=O)N2CCc3[nH]cnc3[C@H]2c2nc3cccc(F)c3o2)o1` [Example 263, (S)-(4-bromo-2-(2-hydroxypropan-2-yl)oxazol-5-yl)(4-(7-fluorobenzo[d]oxazol-2-yl)-6,7-dihydro-1H-imidazo[4,5-c]pyridin-5(4H)-yl)methanone], the AC50 (in general, the concentration at which the activity in the assay is half-maximal) was at most 500 nM. As to `O=C(c1ocnc1C(F)(F)F)N1CCc2[nH]cnc2[C@H]1c1nc2ccc(Br)cc2o1` [Example 143, (S)-(4-(6-bromobenzo[d]oxazol-2-yl)-6,7-dihydro-1H-imidazo[4,5-c]pyridin-5(4H)-yl)(4-(trifluoromethyl)oxazol-5-yl)methanone], the concentration at half-maximal activity (AC50) was at most 500 nM.

As to `O=C(c1ccnn1C(F)F)N1CCc2[nH]cnc2[C@H]1c1nc2c(F)cccc2o1` [Example 201, (S)-(1-(difluoromethyl)-1H-pyrazol-5-yl)(4-(4-fluorobenzo[d]oxazol-2-yl)-6,7-dihydro-1H-imidazo[4,5-c]pyridin-5(4H)-yl)methanone], the half-maximal activity concentration (AC50) fell in the range of 500 to 1000 nM. The same measure, in the same setting: the value for `Cn1cc(-c2nnc(C(=O)N3CCc4[nH]cnc4[C@@H]3c3nc4c(F)ccc(F)c4o3)o2)cn1` [Example 517, (R)-(4-(4,7-difluorobenzo[d]oxazol-2-yl)-6,7-dihydro-1H-imidazo[4,5-c]pyridin-5(4H)-yl)(5-(1-methyl-1H-pyrazol-4-yl)-1,3,4-oxadiazol-2-yl)methanone] was 1000 to 5000 nM; that for `COc1cccc2oc([C@H]3c4nc[nH]c4CCN3C(=O)c3ncnn3C)nc12` [Example 904, (R)-(4-(4-methoxybenzo[d]oxazol-2-yl)-6,7-dihydro-1H-imidazo[4,5-c]pyridin-5(4H)-yl)(1-methyl-1H-1,2,4-triazol-5-yl)methanone] was at least 5000 nM; that for `O=C(c1cnco1)N1CCc2[nH]cnc2[C@@H]1c1nc2cccc(F)c2o1` [Example 282, (R)-(4-(7-fluorobenzo[d]oxazol-2-yl)-6,7-dihydro-1H-imidazo[4,5-c]pyridin-5(4H)-yl)(oxazol-5-yl)methanone] was 1000 to 5000 nM. On the same count and under the same terms, the value for `O=C(c1oc(-c2ccccn2)nc1C1CC1)N1CCc2[nH]cnc2[C@H]1c1nc2cc(F)ccc2o1` [Example 43, (S)-(4-cyclopropyl-2-(pyridin-2-yl)oxazol-5-yl)(4-(5-fluorobenzo[d]oxazol-2-yl)-6,7-dihydro-1H-imidazo[4,5-c]pyridin-5(4H)-yl)methanone] was at most 500 nM.

Regarding `O=C(c1ocnc1C(F)F)N1CCc2[nH]cnc2[C@@H]1c1nc2c(Cl)cccc2o1` [Example 438, [(4R)-4-(4-chloro-1,3-benzoxazol-2-yl)-1,4,6,7-tetrahydroimidazo[4,5-c]pyridin-5-yl]-[4-(difluoromethyl)oxazol-5-yl]methanone], the half-maximal activity concentration (AC50) is at most 500 nM. Still for that read-out and setting: the value for `CN1CCN(c2cn3ncc(C(=O)N4CCc5[nH]cnc5[C@H]4c4nc5cc(F)ccc5o4)c3cc2Cl)CC1` [Example 181, (S)-(5-chloro-6-(4-methylpiperazin-1-yl)pyrazolo[1,5-a]pyridin-3-yl)(4-(5-fluorobenzo[d]oxazol-2-yl)-6,7-dihydro-1H-imidazo[4,5-c]pyridin-5(4H)-yl)methanone] was at most 500 nM; that for `Cc1ccc2c(C(=O)N3CCc4[nH]cnc4[C@H]3c3nc4cc(F)ccc4o3)cnn2c1` [Example 19, (S)-(4-(5-fluorobenzo[d]oxazol-2-yl)-6,7-dihydro-1H-imidazo[4,5-c]pyridin-5(4H)-yl)(6-methylpyrazolo[1,5-a]pyridin-3-yl)methanone] was 1000 to 5000 nM; that for `O=C(c1ccnn1C(F)(F)F)N1CCc2[nH]cnc2[C@@H]1c1nc2ccc(F)cc2o1` [Example 288, (R)-(4-(6-fluorobenzo[d]oxazol-2-yl)-6,7-dihydro-1H-imidazo[4,5-c]pyridin-5(4H)-yl)(1-(trifluoromethyl)-1H-pyrazol-5-yl)methanone] was 1000 to 5000 nM.

For the compound `COc1ccc2oc([C@@H]3c4nc[nH]c4CCN3C(=O)c3oc(C(C)(C)O)nc3C(F)F)nc2c1` [Example 339, (S)-(4-(difluoromethyl)-2-(2-hydroxypropan-2-yl)oxazol-5-yl)(4-(5-methoxybenzo[d]oxazol-2-yl)-6,7-dihydro-1H-imidazo[4,5-c]pyridin-5(4H)-yl)methanone], the concentration at half-maximal activity (AC50) fell in the range of 500 to 1000 nM. On the same count and under the same terms, the result for `O=C(CCc1cncs1)N1CCc2[nH]cnc2[C@H]1c1nc2cccc(F)c2o1` [Example 409, (S)-1-(4-(7-fluorobenzo[d]oxazol-2-yl)-6,7-dihydro-1H-imidazo[4,5-c]pyridin-5(4H)-yl)-3-(thiazol-5-yl)propan-1-one] reads 500 to 1000 nM; that for `Cn1cc(-c2nnc(C(=O)N3CCc4[nH]cnc4[C@H]3c3nc4ccccc4o3)o2)cn1` [Example 581, (S)-(4-(benzo[d]oxazol-2-yl)-6,7-dihydro-1H-imidazo[4,5-c]pyridin-5(4H)-yl)(5-(1-methyl-1H-pyrazol-4-yl)-1,3,4-oxadiazol-2-yl)methanone], at most 500 nM. The same measure, in the same setting: the result for `C[C@H](O)c1nc(C(F)F)c(C(=O)N2CCc3[nH]cnc3[C@@H]2c2nc3cccc(F)c3o2)o1` [Example 244, (4-(difluoromethyl)-2-((S)-1-hydroxyethyl)oxazol-5-yl)((R)-4-(7-fluorobenzo[d]oxazol-2-yl)-6,7-dihydro-1H-imidazo[4,5-c]pyridin-5(4H)-yl)methanone] reads 500 to 1000 nM. The same measure, in the same setting: the value for `CC(C)(O)c1nc(C(F)F)c(C(=O)N2CCc3[nH]cnc3[C@H]2c2nc3ccc(F)c(F)c3o2)o1` [Example 297, (S)-(4-(6,7-difluorobenzo[d]oxazol-2-yl)-6,7-dihydro-1H-imidazo[4,5-c]pyridin-5(4H)-yl)(4-(difluoromethyl)-2-(2-hydroxypropan-2-yl)oxazol-5-yl)methanone] was at most 500 nM; that for `Cc1ccc2c(C(=O)N3CCc4[nH]cnc4[C@@H]3c3nc4cc(F)ccc4o3)cnn2c1` [Example 20, (R)-(4-(5-fluorobenzo[d]oxazol-2-yl)-6,7-dihydro-1H-imidazo[4,5-c]pyridin-5(4H)-yl)(6-methylpyrazolo[1,5-a]pyridin-3-yl)methanone] was at least 5000 nM; that for `Cc1ccc2oc([C@H]3c4nc[nH]c4CCN3C(=O)c3nnc(-c4ccn(C)n4)o3)nc2c1` [Example 390, (R)-(5-(1-methyl-1H-pyrazol-3-yl)-1,3,4-oxadiazol-2-yl)(4-(5-methylbenzo[d]oxazol-2-yl)-6,7-dihydro-1H-imidazo[4,5-c]pyridin-5(4H)-yl)methanone] was 1000 to 5000 nM. `CC(C)(O)c1nc(C(F)(F)F)c(C(=O)N2CCc3[nH]cnc3[C@@H]2c2nc3cccc(F)c3o2)o1` [Example 254, (R)-(4-(7-fluorobenzo[d]oxazol-2-yl)-6,7-dihydro-1H-imidazo[4,5-c]pyridin-5(4H)-yl)(2-(2-hydroxypropan-2-yl)-4-(trifluoromethyl)oxazol-5-yl)methanone]: the AC50 is at most 500 nM. For `Cc1nn(C)cc1-c1nnc(C(=O)N2CCc3[nH]cnc3[C@@H]2c2nc3cc(F)ccc3o2)o1` [Example 882, (R)-(5-(1,3-dimethyl-1H-pyrazol-4-yl)-1,3,4-oxadiazol-2-yl)(4-(5-fluorobenzo[d]oxazol-2-yl)-6,7-dihydro-1H-imidazo[4,5-c]pyridin-5(4H)-yl)methanone], the AC50 lay within 1000 to 5000 nM. Still for that read-out and setting: the result for `CC(C)(O)c1nc(C(F)F)c(C(=O)N2CCc3[nH]cnc3[C@H]2c2nc3c(Cl)cccc3o2)o1` [Example 435, [(4S)-4-(4-chloro-1,3-benzoxazol-2-yl)-1,4,6,7-tetrahydroimidazo[4,5-c]pyridin-5-yl]-[4-(difluoromethyl)-2-(1-hydroxy-1-methyl-ethyl)oxazol-5-yl]methanone] reads at most 500 nM.

The same assay, now with this note: A375 cells expressing R408W PAH; 24 hrs with compound, then 20 μM sepiapterin and 800 μM 13C9,15N-Phenylalanine for 4 hours; 13C-Tyrosine by LC-MS; average where tested multiple times.
Consider `O=C(c1cnn2cc(N3CCC(F)CC3)ccc12)N1CCc2[nH]cnc2C1c1nc2cc(F)ccc2o1` (centres unmarked), for which the AC50 lay within 1000 to 5000 nM. Consider `O=C(C1CN(c2ccccn2)C1)N1CCc2[nH]cnc2C1c1nc2cc(F)ccc2o1` (centres unmarked), for which the AC50 was 1000 to 5000 nM. In the case of `Cc1nc(C(C)(C)N(C)C)oc1C(=O)N1CCc2[nH]cnc2C1c1nc2cc(F)ccc2o1` (centres unmarked), the AC50 was at least 5000 nM.

`O=C(c1ncc(Cl)s1)N1CCc2[nH]cnc2C1c1nc2cc(F)ccc2o1` (centres unmarked): the AC50 was in the range of 1000 to 5000 nM.

As for `Cc1n[nH]cc1-c1nnc(C(=O)N2CCc3[nH]cnc3C2c2nc3cc(F)ccc3o2)o1` (centres unmarked), the AC50 lay in the range of 1000 to 5000 nM. On to `CC(C)n1nccc1C(=O)N1CCc2[nH]cnc2C1c1nc2cccc(F)c2o1` (centres unmarked), for which the half-maximal activity concentration (AC50) lay within 1000 to 5000 nM. On the same count and under the same terms, the value for `O=C(c1ccn(-c2ccccn2)n1)N1CCc2[nH]cnc2C1c1nc2ccccc2o1` (centres unmarked) was at least 5000 nM; that for `COCc1ccc2c(C(=O)N3CCc4[nH]cnc4C3c3nc4ccc(F)cc4o3)cnn2c1` (centres unmarked) was at least 5000 nM. On the same count and under the same terms, the value for `Cn1ncnc1C(=O)N1CCc2[nH]cnc2C1c1nc2c(F)ccc(F)c2o1` (centres unmarked) was 1000 to 5000 nM; that for `COc1ccc2oc(C3c4nc[nH]c4CCN3C(=O)c3cnn4cc(N5CCC(O)CC5)ccc34)nc2c1` (centres unmarked) was at least 5000 nM. Turning to `O=C(c1nnc(-c2cnn(S(=O)(=O)C3CC3)c2)o1)N1CCc2[nH]cnc2C1c1nc2cc(F)ccc2o1` (centres unmarked), the AC50 lay in the range of 1000 to 5000 nM.
